The target of assay [1] is human full-length recombinant HPK1 (Homo sapiens (Human), UniProt Q92918). The experiment in a line: HPK1 biochemical enzyme assay, microfluidic mobility shift assay (MSA). As to conditions: read-out: HPK1 Enzyme Assay_Ki.
Assay [2] relates to phospho-SLP-76 (Ser376) in Jurkat cells. The experiment in a line: Phospho-SLP-76 (Ser376) Homogeneous Time Resolved Fluorescence (HTRF) assay in Jurkat cells. The conditions noted are these: Homo sapiens, read-out: SLP76 Assay_IC50. The assay is classed as cell-based. The method in brief: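 Phospho-SLP-76 in lysates was read by sandwich HTRF and IC50 derived by four-parameter nonlinear regression. Before lysis, cells had received compound for 30 min (11-point, 3-fold series from 10 μM, 0.1% DMSO), followed by anti-CD3 F(ab)2 complex (200 μg/mL, 15 min, 37 °C).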
For orientation: Time-resolved FRET reads energy transfer from a long-lived donor to a nearby acceptor.

The mark [3] stands for this setting: mobility shift assay, 75 μM ATP, Morrison equation, tight-binding competitive inhibition.
The mark [4] stands for this setting: 30 min pre-treatment, anti-CD3 stimulation 15 min, HTRF.
Where [5] appears, read: Phospho-SLP-76 (Ser376) HTRF, anti-CD3 stimulation.

Structures are written as SMILES. Where two headings read alike, the source gives them in different places.

25 compounds from patent US11142525B2 (Pfizer Inc., priority 2018, dated 2021) can be followed below.

Chain of human full-length recombinant HPK1 (Q92918 whole entry): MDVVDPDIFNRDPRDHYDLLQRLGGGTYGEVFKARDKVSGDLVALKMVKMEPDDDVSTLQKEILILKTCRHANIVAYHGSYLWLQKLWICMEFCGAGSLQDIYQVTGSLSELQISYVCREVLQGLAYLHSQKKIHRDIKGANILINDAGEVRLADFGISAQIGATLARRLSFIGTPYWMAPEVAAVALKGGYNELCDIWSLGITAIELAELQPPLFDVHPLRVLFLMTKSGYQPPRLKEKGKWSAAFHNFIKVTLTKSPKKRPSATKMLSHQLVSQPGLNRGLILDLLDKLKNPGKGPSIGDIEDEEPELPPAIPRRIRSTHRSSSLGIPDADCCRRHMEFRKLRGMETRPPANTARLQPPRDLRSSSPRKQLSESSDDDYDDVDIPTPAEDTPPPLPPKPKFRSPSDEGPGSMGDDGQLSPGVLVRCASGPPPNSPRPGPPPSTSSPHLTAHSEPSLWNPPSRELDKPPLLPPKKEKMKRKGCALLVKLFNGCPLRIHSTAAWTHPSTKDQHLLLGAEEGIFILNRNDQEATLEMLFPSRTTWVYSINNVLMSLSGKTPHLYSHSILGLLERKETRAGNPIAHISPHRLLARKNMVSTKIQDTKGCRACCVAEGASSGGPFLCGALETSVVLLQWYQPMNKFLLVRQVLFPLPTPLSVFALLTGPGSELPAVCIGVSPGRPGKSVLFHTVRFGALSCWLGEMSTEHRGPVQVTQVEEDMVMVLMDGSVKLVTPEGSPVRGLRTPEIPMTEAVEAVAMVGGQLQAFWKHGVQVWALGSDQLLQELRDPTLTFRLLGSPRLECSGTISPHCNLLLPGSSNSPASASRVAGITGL

Turning to `CNCc1nc(C)cc2c1CN(c1cccc(-c3nncn3C(C)C)n1)C2=O` [Example 47, 6-methyl-4-[(methylamino)methyl]-2-{6-[4-(propan-2-yl)-4H-1,2,4-triazol-3-yl]pyridin-2-yl}-2,3-dihydro-1H-pyrrolo[3,4-c]pyridin-1-one], the Ki in assay [1] (setting [3]) came out at 7.1 nM. For the same compound, the IC50 in assay [2] (setting [4]) worked out at 1520 nM.
For the compound `CNCc1nc(C2CC2)cc2c1CN(c1cccc(-c3nncn3C(C)C)n1)C2=O` [Example 5, 6-cyclopropyl-4-[(methylamino)methyl]-2-{6-[4-(propan-2-yl)-4H-1,2,4-triazol-3-yl]pyridin-2-yl}-2,3-dihydro-1H-pyrrolo[3,4-c]pyridin-1-one], the Ki in assay [1] (setting [3]) was found to be 0.39 nM. Further, the IC50 in assay [2] (setting [4]) is 186 nM.
`CCCn1c(C)nnc1-c1cccc(N2Cc3c(cc(C4(C)CC4)nc3CN)C2=O)n1` [Example 128, 4-(aminomethyl)-6-(1-methylcyclopropyl)-2-[6-(5-methyl-4-propyl-4H-1,2,4-triazol-3-yl)pyridin-2-yl]-2,3-dihydro-1H-pyrrolo[3,4-c]pyridin-1-one]: the Ki in assay [1] (HPK1 mobility shift assay) amounted to 0.63 nM. The IC50 in assay [2] (setting [5]) is 874 nM.
With `CNCc1nc(N(C)C(C)C)cc2c1CN(c1cccc(-c3nncn3C(C)C)n1)C2=O` [Example 6, 4-[(methylamino)methyl]-6-[methyl(propan-2-yl)amino]-2-{6-[4-(propan-2-yl)-4H-1,2,4-triazol-3-yl]pyridin-2-yl}-2,3-dihydro-1H-pyrrolo[3,4-c]pyridin-1-one], the Ki in assay [1] (setting [3]) stood at 0.13 nM. In addition, the IC50 in assay [2] (setting [4]) was found to be 39 nM.
For the compound `CN(C)c1cc2c(c(CN)n1)CN(c1cccc(N3C(=O)OC[C@@H]3CF)n1)C2=O` [Example 174], the Ki in assay [1] (HPK1 mobility shift assay) is 0.37 nM. For the same compound, in assay [2] (setting [5]), the IC50 was found to be 207 nM.
Turning to `CCN(c1cc2c(c(CNC)n1)CN(c1cccc(N3C(=O)OC[C@@H]3CF)n1)C2=O)C(C)C` [Example 98, 6-[ethyl(propan-2-yl)amino]-2-{6-[(4R)-4-(fluoromethyl)-2-oxo-1,3-oxazolidin-3-yl]pyridin-2-yl}-4-[(methylamino)methyl]-2,3-dihydro-1H-pyrrolo[3,4-c]pyridin-1-one], the Ki in assay [1] (HPK1 mobility shift assay) was 0.96 nM. Besides, the IC50 in assay [2] (setting [5]) amounted to 514 nM.
On to `CC[C@H](CC(F)(F)F)n1cnnc1-c1cccc(N2Cc3c(cc(N(C)C)nc3CNC)C2=O)n1` (single isomer, unassigned) [Example 19, 6-(dimethylamino)-4-[(methylamino)methyl]-2-(6-{4-[(3ξ)-1,1,1-trifluoropentan-3-yl]-4H-1,2,4-triazol-3-yl}pyridin-2-yl)-2,3-dihydro-1H-pyrrolo[3,4-c]pyridin-1-one], for which the Ki in assay [1] (setting [3]) is 6.9 nM. Besides, the IC50 in assay [2] (setting [4]) is above 10000 nM.
The corresponding values for `CNCc1nc(C(C)(C)C)cc2c1CN(c1cccc(N3C(=O)OC[C@@H]3C)n1)C2=O` [Example 39, 6-tert-butyl-4-[(methylamino)methyl]-2-{6-[(4S)-4-methyl-2-oxo-1,3-oxazolidin-3-yl]pyridin-2-yl}-2,3-dihydro-1H-pyrrolo[3,4-c]pyridin-1-one] are 1.8 nM and 672 nM.
With `C[C@H]1COC(=O)N1c1cccc(N2Cc3c(cc(C(C)(C)C)nc3CN)C2=O)n1` [Example 36, 4-(aminomethyl)-6-tert-butyl-2-{6-[(4S)-4-methyl-2-oxo-1,3-oxazolidin-3-yl]pyridin-2-yl}-2,3-dihydro-1H-pyrrolo[3,4-c]pyridin-1-one], the Ki in assay [1] (setting [3]) came out at 5.1 nM. In addition, the IC50 in assay [2] (setting [4]) was 1110 nM.
As for `CCn1cnnc1-c1cccc(N2Cc3c(cc(N4[C@H](C)CC[C@H]4C)nc3CN)C2=O)n1` [Example 110, 4-(aminomethyl)-6-[(2R,5R)-2,5-dimethylpyrrolidin-1-yl]-2-[6-(4-ethyl-4H-1,2,4-triazol-3-yl)pyridin-2-yl]-2,3-dihydro-1H-pyrrolo[3,4-c]pyridin-1-one], the Ki in assay [1] (HPK1 mobility shift assay) amounted to 0.32 nM. Besides, the IC50 in assay [2] (setting [5]) came to 86 nM.
Turning to `CCn1c(C)nnc1-c1cccc(N2Cc3c(cc(N4[C@H](C)CC[C@H]4C)nc3CNC)C2=O)n1` [Example 111, 6-[(2R,5R)-2,5-dimethylpyrrolidin-1-yl]-2-[6-(4-ethyl-5-methyl-4H-1,2,4-triazol-3-yl)pyridin-2-yl]-4-[(methylamino)methyl]-2,3-dihydro-1H-pyrrolo[3,4-c]pyridin-1-one], in assay [1] (HPK1 mobility shift assay), the Ki amounted to 1.01 nM. Besides, the IC50 in assay [2] (setting [5]) stood at 147 nM.
The corresponding values for `CNCc1nc(C2(C)CC2)cc2c1CN(c1cccc(N3C(=O)OC[C@@H]3CF)n1)C2=O` [Example 91, 2-{6-[(4R)-4-(fluoromethyl)-2-oxo-1,3-oxazolidin-3-yl]pyridin-2-yl}-4-[(methylamino)methyl]-6-(1-methylcyclopropyl)-2,3-dihydro-1H-pyrrolo[3,4-c]pyridin-1-one] are 0.33 nM and 257 nM.
With `CCCn1cnnc1-c1cccc(N2Cc3c(cc(N(C)C)nc3CNC)C2=O)n1` [Example 46, 6-(dimethylamino)-4-[(methylamino)methyl]-2-[6-(4-propyl-4H-1,2,4-triazol-3-yl)pyridin-2-yl]-2,3-dihydro-1H-pyrrolo[3,4-c]pyridin-1-one], the Ki in assay [1] (setting [3]) is 0.14 nM. The IC50 in assay [2] (setting [4]) stood at 94 nM.
For `C[C@@H]1CC[C@@H](C)N1c1cc2c(c(CN)n1)CN(c1cccc(N3C(=O)OC[C@@H]3C)n1)C2=O` [Example 137, 4-(aminomethyl)-6-[(2R,5R)-2,5-dimethylpyrrolidin-1-yl]-2-{6-[(4S)-4-methyl-2-oxo-1,3-oxazolidin-3-yl]pyridin-2-yl}-2,3-dihydro-1H-pyrrolo[3,4-c]pyridin-1-one], the Ki in assay [1] (HPK1 mobility shift assay) is 0.28 nM. Moreover, in assay [2] (setting [5]), the IC50 was found to be 76 nM.
On to `CCC(CC)n1cnnc1-c1cccc(N2Cc3c(cc(C4CC4)nc3CNC)C2=O)n1` [Example 142, 6-cyclopropyl-4-[(methylamino)methyl]-2-{6-[4-(pentan-3-yl)-4H-1,2,4-triazol-3-yl]pyridin-2-yl}-2,3-dihydro-1H-pyrrolo[3,4-c]pyridin-1-one], for which the Ki in assay [1] (HPK1 mobility shift assay) is 0.52 nM. The IC50 in assay [2] (setting [5]) is 239 nM.
For `CCCn1cnnc1-c1cccc(N2Cc3c(cc(C4(C)CC4)nc3CNC)C2=O)n1` [Example 94, 4-[(methylamino)methyl]-6-(1-methylcyclopropyl)-2-[6-(4-propyl-4H-1,2,4-triazol-3-yl)pyridin-2-yl]-2,3-dihydro-1H-pyrrolo[3,4-c]pyridin-1-one], in assay [1] (HPK1 mobility shift assay), the Ki was found to be 0.34 nM. In addition, the IC50 in assay [2] (setting [5]) was 280 nM.
With `CCn1cnnc1-c1cccc(N2Cc3c(cc(N4CCC4)nc3CNC)C2=O)n1` [Example 92, 6-(azetidin-1-yl)-2-[6-(4-ethyl-4H-1,2,4-triazol-3-yl)pyridin-2-yl]-4-[(methylamino)methyl]-2,3-dihydro-1H-pyrrolo[3,4-c]pyridin-1-one], the Ki in assay [1] (HPK1 mobility shift assay) turned out to be 0.43 nM. Besides, in assay [2] (setting [5]), the IC50 worked out at 226 nM.
Turning to `CNCc1nc(N2[C@H](C)CC[C@H]2C)cc2c1CN(c1cccc(N3C(=O)OC[C@@H]3CF)n1)C2=O` [Example 118, 6-[(2R,5R)-2,5-dimethylpyrrolidin-1-yl]-2-{6-[(4R)-4-(fluoromethyl)-2-oxo-1,3-oxazolidin-3-yl]pyridin-2-yl}-4-[(methylamino)methyl]-2,3-dihydro-1H-pyrrolo[3,4-c]pyridin-1-one], the Ki in assay [1] (HPK1 mobility shift assay) worked out at 0.89 nM. The IC50 in assay [2] (setting [5]) was determined as 149 nM.
`C[C@@H]1C[C@@H](C)N1c1cc2c(c(CN)n1)CN(c1cccc(N3C(=O)OC[C@@H]3C)n1)C2=O` [Example 43, 4-(aminomethyl)-6-[(2R,4R)-2,4-dimethylazetidin-1-yl]-2-{6-[(4S)-4-methyl-2-oxo-1,3-oxazolidin-3-yl]pyridin-2-yl}-2,3-dihydro-1H-pyrrolo[3,4-c]pyridin-1-one]: in assay [1] (setting [3]), the Ki amounted to 1.92 nM. Also, the IC50 in assay [2] (setting [4]) came out at 561 nM.
The corresponding values for `CCN(CC)c1cc2c(c(CNC)n1)CN(c1cccc(-c3nncn3C(C)C)n1)C2=O` [Example 4, 6-(diethylamino)-4-[(methylamino)methyl]-2-{6-[4-(propan-2-yl)-4H-1,2,4-triazol-3-yl]pyridin-2-yl}-2,3-dihydro-1H-pyrrolo[3,4-c]pyridin-1-one] are 0.39 nM and 106 nM.
Consider `CCn1c(C)nnc1-c1cccc(N2Cc3c(cc(C4(C)CC4)nc3CN)C2=O)n1` [Example 127, 4-(aminomethyl)-2-[6-(4-ethyl-5-methyl-4H-1,2,4-triazol-3-yl)pyridin-2-yl]-6-(1-methylcyclopropyl)-2,3-dihydro-1H-pyrrolo[3,4-c]pyridin-1-one], for which the Ki in assay [1] (HPK1 mobility shift assay) came to 1.52 nM. Moreover, in assay [2] (setting [5]), the IC50 stood at 435 nM.
Taken in the same sequence, the figures for `CCCn1c(C)nnc1-c1cccc(N2Cc3c(cc(N(C)C(C)C)nc3CN)C2=O)n1` [Example 172] were 0.55 nM and 85 nM.
The corresponding values for `CCC(CC)n1cnnc1-c1cccc(N2Cc3c(cc(N(CC)C(C)C)nc3CN)C2=O)n1` [Example 166] are 0.5 nM and 104 nM.
As to `CCC(CC)n1cnnc1-c1cccc(N2Cc3c(cc(N4[C@H](C)CC[C@H]4C)nc3CN)C2=O)n1` [Example 119, 4-(aminomethyl)-6-[(2R,5R)-2,5-dimethylpyrrolidin-1-yl]-2-{6-[4-(pentan-3-yl)-4H-1,2,4-triazol-3-yl]pyridin-2-yl}-2,3-dihydro-1H-pyrrolo[3,4-c]pyridin-1-one], the Ki in assay [1] (HPK1 mobility shift assay) stood at 0.52 nM. The IC50 in assay [2] (setting [5]) was determined as 104 nM.
The corresponding values for `CNCc1nc(C2CCC2)cc2c1CN(c1cccc(-c3nncn3C(C)C)n1)C2=O` [Example 69, 6-cyclobutyl-4-[(methylamino)methyl]-2-{6-[4-(propan-2-yl)-4H-1,2,4-triazol-3-yl]pyridin-2-yl}-2,3-dihydro-1H-pyrrolo[3,4-c]pyridin-1-one] are 0.53 nM and 248 nM.
